This note sets out measurements from ChEMBL document CHEMBL1201862, “PubChem BioAssay data set” (2004).

Among the test systems are A498; HT-29; Hs-578T; K562; KM12; M14; MCF7; MDA-MB-435; MOLT-4; NCI-H522; NCI/ADR-RES; OVCAR-5; OVCAR-8; SF-539; SK-OV-3; SN12C; SNB-19; SNB-75; TK-10; UO-31.
What all share (assay): growth of human tumour cells (NCI), 48 h

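How tested: cells in 96-well plates exposed to compound for 48 hours at five concentrations. Here, GI50 denotes the concentration required for 50% inhibition of growth.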 Calls of active or inactive are those of the source. Cut-off read from the data, not from the text of the source: active = GI50 up to about 1.1 µM and inactive = higher.

With `O=C1/C(=C/c2ccc(O)c([N+](=O)[O-])c2)CCC/C1=C\c1ccc(O)c([N+](=O)[O-])c1`, the GI50 was 6.55 µM (inactive) in the assay on A498; 12.3 µM (inactive) in the assay with HT-29; 4.48 µM (inactive) in the assay on Hs-578T; 15.7 µM (inactive) in the assay with K562; 9.4 µM (inactive) in the assay on KM12; 10.8 µM (inactive) with M14. Moreover, the GI50 in the assay on MCF7 is 12.3 µM (inactive); in the assay with MDA-MB-435 it was 9.53 µM (inactive); in the assay on MOLT-4, 13.9 µM (inactive); in the assay with NCI-H522 it was 8.93 µM (inactive); in the assay with NCI/ADR-RES, 19.2 µM (inactive); in the assay on OVCAR-5, 15.4 µM (inactive). Moreover, the GI50 with OVCAR-8 is 18.5 µM (inactive); with SF-539, 19.3 µM (inactive); in the assay on SK-OV-3 it was 26 µM (inactive); in the assay on SN12C it was 11.4 µM (inactive); in the assay with SNB-19, 11.7 µM (inactive); in the assay with SNB-75, 1.61 µM (inactive). Further, the GI50 in the assay with TK-10 is 23.2 µM (inactive); in the assay on UO-31, 15.2 µM (inactive).
For `Cc1cc(N(CCOS(C)(=O)=O)CCOS(C)(=O)=O)ccc1/C=N/c1ccc(-c2nc(Cc3ccccc3)sc2C)cc1`, the GI50 is 1.55 µM (inactive) in the assay with A498; 5.3 µM (inactive) in the assay on HT-29; 10.6 µM (inactive) in the assay on Hs-578T; 5.61 µM (inactive) in the assay with K562; 14.2 µM (inactive) in the assay on KM12; 4.86 µM (inactive) in the assay on M14. Also, the GI50 with MCF7 is 3.52 µM (inactive); with MDA-MB-435, 11 µM (inactive); in the assay with MOLT-4, 1.23 µM (inactive); with NCI-H522 it was 0.233 µM (active); in the assay with NCI/ADR-RES, 10.6 µM (inactive); in the assay on OVCAR-5, 11.2 µM (inactive). The GI50 is 7.53 µM (inactive) in the assay with OVCAR-8; 1.8 µM (inactive) in the assay with SF-539; 0.494 µM (active) in the assay with SK-OV-3; 5.4 µM (inactive) in the assay on SN12C; 8.3 µM (inactive) with SNB-19; 1.66 µM (inactive) in the assay with SNB-75. The GI50 was 4.6 µM (inactive) in the assay with TK-10 and 3.71 µM (inactive) in the assay on UO-31.
For the compound `CC(=O)c1ccc(Nc2c3c(nc4ccccc24)CCCC3)cc1`, the GI50 was > 31.8 µM (inactive) in the assay with A498; 10.2 µM (inactive) with HT-29; 27.9 µM (inactive) in the assay on Hs-578T; 16.4 µM (inactive) in the assay on K562; 7.29 µM (inactive) in the assay with KM12; 12.6 µM (inactive) with M14. In addition, the GI50 with MCF7 was 18.7 µM (inactive); in the assay with MDA-MB-435, 1.96 µM (inactive); in the assay with MOLT-4, 9.59 µM (inactive); in the assay on NCI-H522, 3.85 µM (inactive); in the assay with NCI/ADR-RES it was 10.4 µM (inactive); with OVCAR-5, 13.5 µM (inactive). Moreover, the GI50 is 17.7 µM (inactive) in the assay on OVCAR-8; 26.6 µM (inactive) in the assay with SF-539; 26.7 µM (inactive) with SK-OV-3; 22.9 µM (inactive) in the assay with SN12C; 20.2 µM (inactive) in the assay on SNB-19; 4.12 µM (inactive) in the assay with SNB-75. For the same compound, the GI50 in the assay with TK-10 was 42.5 µM (inactive); in the assay with UO-31 it was 5.58 µM (inactive).
As for `COc1cc(OC)c(OC)cc1/C=C/c1cnnc2ccccc12`, the GI50 is > 10 µM (inactive) with A498; > 10 µM (inactive) with HT-29; > 10 µM (inactive) in the assay with Hs-578T; 7.85 µM (inactive) with K562; > 10 µM (inactive) with KM12; > 10 µM (inactive) in the assay on M14. The GI50 in the assay on MCF7 was 1.68 µM (inactive); with MDA-MB-435 it was 1.84 µM (inactive); in the assay on MOLT-4, > 10 µM (inactive); in the assay on NCI-H522 it was > 10 µM (inactive); with NCI/ADR-RES, > 10 µM (inactive); in the assay on OVCAR-5, > 10 µM (inactive). In addition, the GI50 in the assay with OVCAR-8 was > 10 µM (inactive); in the assay on SF-539, > 10 µM (inactive); in the assay on SK-OV-3 it was > 10 µM (inactive); with SN12C, > 10 µM (inactive); in the assay on SNB-19, > 10 µM (inactive); in the assay on SNB-75, 2.85 µM (inactive). The GI50 with TK-10 and in the assay with UO-31 was > 10 µM (inactive) each time.
For `O=c1ccc(=O)n(-c2ccccc2)[nH]1`, the GI50 with A498, in the assay on HT-29, with Hs-578T, with K562, in the assay on KM12 and in the assay with M14 was > 100 µM (inactive) in each case. The GI50 in the assay on MCF7, in the assay on MDA-MB-435, in the assay on MOLT-4, in the assay with NCI-H522, in the assay with NCI/ADR-RES and in the assay with OVCAR-5 was > 100 µM (inactive) each time. The GI50 with OVCAR-8, in the assay on SF-539, in the assay on SK-OV-3, with SN12C, in the assay with SNB-19 and with SNB-75 was > 100 µM (inactive) throughout. Further, the GI50 with TK-10 and in the assay with UO-31 was > 100 µM (inactive) in each case.
Regarding `COc1ccc2c(c1)c(=O)c1c(NCCCN(C)C)ccc3ncn2c31`, the GI50 is 11.2 µM (inactive) in the assay with A498; 1.13 µM (inactive) in the assay on HT-29; 10.6 µM (inactive) with Hs-578T; 2.92 µM (inactive) in the assay on K562; 1.38 µM (inactive) in the assay with KM12; 4.78 µM (inactive) in the assay with M14. The GI50 is 0.714 µM (active) in the assay on MCF7; 6.05 µM (inactive) with MDA-MB-435; 0.215 µM (active) in the assay on MOLT-4; 0.993 µM (active) in the assay with NCI-H522; 0.832 µM (active) with NCI/ADR-RES; 12.3 µM (inactive) with OVCAR-5. The GI50 in the assay on OVCAR-8 is 0.495 µM (active); with SF-539 it was 3.93 µM (inactive); in the assay on SK-OV-3, 8.38 µM (inactive); with SN12C, 1.72 µM (inactive); with SNB-19, 3.95 µM (inactive); with SNB-75, 6.3 µM (inactive). In addition, the GI50 in the assay with TK-10 was 6.1 µM (inactive); with UO-31, 2.62 µM (inactive).
Consider `CCOC(=O)NC(Nc1ccc(F)cc1F)(C(F)(F)F)C(F)(F)F`, for which the GI50 in the assay with A498, with HT-29, in the assay with Hs-578T, in the assay with K562, with KM12 and with M14 was > 100 µM (inactive) in each case. The GI50 with MCF7, in the assay with MDA-MB-435, with MOLT-4, in the assay with NCI-H522, with NCI/ADR-RES and in the assay with OVCAR-5 was > 100 µM (inactive) each time. Also, the GI50 with OVCAR-8, in the assay on SF-539, in the assay with SK-OV-3, in the assay on SN12C, with SNB-19 and in the assay with SNB-75 was > 100 µM (inactive) each time. Besides, the GI50 in the assay with TK-10 and in the assay with UO-31 was > 100 µM (inactive) each time.
Take `COc1cc([C@@H]2C3C(=O)c4ccccc4C3[C@@H](c3cc(OC)c(OC)c(OC)c3)C23Cc2ccccc2C3=O)cc(OC)c1OC` (stereo not given in full): the GI50 with A498, in the assay on HT-29, with Hs-578T, in the assay on K562, in the assay with KM12 and in the assay with M14 was > 100 µM (inactive) each time. Besides, the GI50 was 15.4 µM (inactive) in the assay with MCF7; > 100 µM (inactive) in the assay with MDA-MB-435; > 100 µM (inactive) in the assay on MOLT-4; > 100 µM (inactive) in the assay on NCI-H522; > 100 µM (inactive) with NCI/ADR-RES; > 100 µM (inactive) with OVCAR-5. For the same compound, the GI50 in the assay with OVCAR-8 was > 100 µM (inactive); in the assay with SF-539, > 100 µM (inactive); in the assay on SK-OV-3, > 100 µM (inactive); in the assay with SN12C, > 100 µM (inactive); with SNB-19, > 100 µM (inactive); in the assay with SNB-75, 21.8 µM (inactive). For the same compound, the GI50 in the assay on TK-10 and in the assay with UO-31 was > 100 µM (inactive) each time.
